Here are results for 1 molecule from patent publication US20230309556A1, “HERBICIDAL COMPOSITIONS RELATED TO OXALOACETATE AND METHODS AND USE THEREOF” (priority 2021, published 2023).

The subject of the experiment is plants. Put plainly: general screening of the herbicidal effect. As to conditions: 10% w/w; compared with Roundup RTU and Bayer Advanced at 10% and 100% Label Rate; results shown in FIG. 1. The experiment is classed as in vivo. How it is done:
A general screening of the herbicidal effect of the following compounds was carried out: Bayer Advanced (100% Label Rate), Bayer Advanced (10% Lable Rate), UTC, Diethyl Oxalacetate (10% w/w), Roundup, rtu (10% Label Rate) and Roundup RTU (100% Label Rate).

On to `CCOC(=O)CC(=O)C(=O)OCC` [Diethyl Oxalacetate], for which the herbicidal activity result is “comparable to well-known herbicide products such as Roundup and Bayer Advanced”.
